Test results from the NIST ThermoML archive (doi:10.1021/je060271a).
Numbers after ± are expanded uncertainties.

Conditions: 303.15 K, Liquid, Vibrating tube method

CCCCCCCC(=O)OCC(COC(=O)CCCCCCC)(COC(=O)CCCCCCC)COC(=O)CCCCCCC [pentaerythritol tetraoctanoate]
Conditions | mass density [kg/m3]
28411 kPa | 972 ± 1.2
28450 kPa | 971.9 ± 1.2
28485 kPa | 972 ± 1.2
28563 kPa | 972.1 ± 1.2
28635 kPa | 972 ± 1.2
28718 kPa | 972.1 ± 1.2
28794 kPa | 972.2 ± 1.2
28833 kPa | 972.2 ± 1.2
28858 kPa | 972 ± 1.2
28881 kPa | 972.2 ± 1.2
28903 kPa | 972.2 ± 1.2
28932 kPa | 972.2 ± 1.2
28954 kPa | 972.3 ± 1.2
28977 kPa | 972.2 ± 1.2
29007 kPa | 972.1 ± 1.2
29030 kPa | 972.2 ± 1.2
29057 kPa | 972.3 ± 1.2
29081 kPa | 972.3 ± 1.2
29107 kPa | 972.3 ± 1.2
29129 kPa | 972.3 ± 1.2
29159 kPa | 972.2 ± 1.2
29182 kPa | 972.4 ± 1.2
29208 kPa | 972.2 ± 1.2
29237 kPa | 972.4 ± 1.2
29263 kPa | 971.8 ± 1.2
29291 kPa | 972.4 ± 1.2
29316 kPa | 972.4 ± 1.2
29341 kPa | 972.6 ± 1.2
29366 kPa | 972.4 ± 1.2
29397 kPa | 972.5 ± 1.2
29422 kPa | 972.5 ± 1.2
29447 kPa | 972.5 ± 1.2
29476 kPa | 972.5 ± 1.2
29501 kPa | 972.6 ± 1.2
29527 kPa | 972.6 ± 1.2
29551 kPa | 972.5 ± 1.2
29579 kPa | 972.5 ± 1.2
29610 kPa | 972.6 ± 1.2
29627 kPa | 972.6 ± 1.2
29648 kPa | 972.6 ± 1.2
29671 kPa | 972.6 ± 1.2
29696 kPa | 972.7 ± 1.2
29725 kPa | 972.7 ± 1.2
29750 kPa | 972.6 ± 1.2
29775 kPa | 972.6 ± 1.2
29807 kPa | 972.8 ± 1.2
29827 kPa | 972.7 ± 1.2
29857 kPa | 972.7 ± 1.2
29882 kPa | 972.8 ± 1.2
29912 kPa | 972.7 ± 1.2
29937 kPa | 972.6 ± 1.2
29963 kPa | 972.7 ± 1.2
29993 kPa | 972.9 ± 1.2
30018 kPa | 972.7 ± 1.2
30044 kPa | 972.8 ± 1.2
30069 kPa | 972.8 ± 1.2
30100 kPa | 972.9 ± 1.2
30125 kPa | 972.8 ± 1.2
30151 kPa | 972.8 ± 1.2
30183 kPa | 972.9 ± 1.2
30209 kPa | 973 ± 1.2
30234 kPa | 973 ± 1.2
30260 kPa | 973 ± 1.2
30291 kPa | 972.9 ± 1.2
30317 kPa | 973 ± 1.2
30343 kPa | 972.9 ± 1.2
30374 kPa | 973 ± 1.2
30400 kPa | 972.9 ± 1.2
30431 kPa | 973.1 ± 1.2
30457 kPa | 973 ± 1.2
30483 kPa | 973.1 ± 1.2
30510 kPa | 973.1 ± 1.2
30541 kPa | 973 ± 1.2
30568 kPa | 972.9 ± 1.2
30595 kPa | 973.1 ± 1.2
30626 kPa | 973.2 ± 1.2
30652 kPa | 973.1 ± 1.2
30685 kPa | 973.2 ± 1.2
30711 kPa | 973.2 ± 1.2
30738 kPa | 973.3 ± 1.2
30765 kPa | 973.1 ± 1.2
30797 kPa | 973.2 ± 1.2
30824 kPa | 973.2 ± 1.2
30852 kPa | 973.1 ± 1.2
30884 kPa | 973.2 ± 1.2
30911 kPa | 973.4 ± 1.2
30938 kPa | 973.2 ± 1.2
30971 kPa | 973.2 ± 1.2
30998 kPa | 973.3 ± 1.2
31025 kPa | 973.3 ± 1.2
31057 kPa | 973.4 ± 1.2
31085 kPa | 973.5 ± 1.2
31113 kPa | 973.5 ± 1.2
31145 kPa | 973.5 ± 1.2
31172 kPa | 973.6 ± 1.2
31206 kPa | 973.4 ± 1.2
31234 kPa | 973.5 ± 1.2
31261 kPa | 973.5 ± 1.2
31290 kPa | 973.5 ± 1.2
31323 kPa | 973.5 ± 1.2
31351 kPa | 973.5 ± 1.2
31380 kPa | 973.6 ± 1.2
31413 kPa | 973.5 ± 1.2
31442 kPa | 973.6 ± 1.2
31469 kPa | 973.7 ± 1.2
31503 kPa | 973.6 ± 1.2
31532 kPa | 973.7 ± 1.2
31560 kPa | 973.7 ± 1.2
31589 kPa | 973.6 ± 1.2
31624 kPa | 973.7 ± 1.2
31653 kPa | 973.6 ± 1.2
31681 kPa | 973.8 ± 1.2
31715 kPa | 973.8 ± 1.2
31744 kPa | 973.7 ± 1.2
31773 kPa | 973.7 ± 1.2
31808 kPa | 973.8 ± 1.2
31836 kPa | 973.7 ± 1.2
31865 kPa | 973.8 ± 1.2
31900 kPa | 973.8 ± 1.2
31929 kPa | 973.8 ± 1.2
31958 kPa | 973.8 ± 1.2
31994 kPa | 973.8 ± 1.2
32025 kPa | 973.9 ± 1.2
32055 kPa | 973.9 ± 1.2
32084 kPa | 973.8 ± 1.2
32120 kPa | 973.9 ± 1.2
32150 kPa | 974 ± 1.2
32179 kPa | 973.9 ± 1.2
32215 kPa | 973.9 ± 1.2
32244 kPa | 974 ± 1.2
32274 kPa | 974 ± 1.2
32311 kPa | 974 ± 1.2
32340 kPa | 974 ± 1.2
32370 kPa | 974.1 ± 1.2
32407 kPa | 974 ± 1.2
32432 kPa | 974.1 ± 1.2
32469 kPa | 974.1 ± 1.2
32499 kPa | 974.2 ± 1.2
32535 kPa | 974.2 ± 1.2
32566 kPa | 974.2 ± 1.2
32596 kPa | 974.2 ± 1.2
32626 kPa | 974.2 ± 1.2
32663 kPa | 974.2 ± 1.2
32693 kPa | 974.1 ± 1.2
32730 kPa | 974.3 ± 1.2
32761 kPa | 974.3 ± 1.2
32792 kPa | 974.3 ± 1.2
32829 kPa | 974.3 ± 1.2
